The values that follow come from ChEMBL document CHEMBL3734669, “Δ(5)-Cholenoyl-amino acids as selective and orally available antagonists of the Eph-ephrin system” (Eur J Med Chem, 2015).

Series [1] has as its target T1, G-protein coupled bile acid receptor 1 (Homo sapiens) (UniProt Q8TDU6).
T1 sequence (whole entry): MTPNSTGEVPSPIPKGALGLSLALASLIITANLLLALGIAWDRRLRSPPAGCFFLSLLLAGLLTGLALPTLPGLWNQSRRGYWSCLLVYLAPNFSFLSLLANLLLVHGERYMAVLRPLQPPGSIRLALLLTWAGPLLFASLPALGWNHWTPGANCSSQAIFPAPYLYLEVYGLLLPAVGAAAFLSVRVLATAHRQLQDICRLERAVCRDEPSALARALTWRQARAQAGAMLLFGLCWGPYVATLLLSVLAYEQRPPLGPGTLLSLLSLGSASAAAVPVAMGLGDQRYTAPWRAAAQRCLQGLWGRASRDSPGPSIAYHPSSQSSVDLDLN
As to the kind of experiment: Agonist activity at TGR5 (unknown origin) assessed as cAMP level up to 30 uM. The class given is functional. (In general: Cyclic AMP is a second messenger, typically raised through Gs and lowered through Gi signalling.)

The target of series [2] is T2, Ephrin type-B receptor 4 (Homo sapiens) (UniProt P54760).
T2 sequence (whole entry): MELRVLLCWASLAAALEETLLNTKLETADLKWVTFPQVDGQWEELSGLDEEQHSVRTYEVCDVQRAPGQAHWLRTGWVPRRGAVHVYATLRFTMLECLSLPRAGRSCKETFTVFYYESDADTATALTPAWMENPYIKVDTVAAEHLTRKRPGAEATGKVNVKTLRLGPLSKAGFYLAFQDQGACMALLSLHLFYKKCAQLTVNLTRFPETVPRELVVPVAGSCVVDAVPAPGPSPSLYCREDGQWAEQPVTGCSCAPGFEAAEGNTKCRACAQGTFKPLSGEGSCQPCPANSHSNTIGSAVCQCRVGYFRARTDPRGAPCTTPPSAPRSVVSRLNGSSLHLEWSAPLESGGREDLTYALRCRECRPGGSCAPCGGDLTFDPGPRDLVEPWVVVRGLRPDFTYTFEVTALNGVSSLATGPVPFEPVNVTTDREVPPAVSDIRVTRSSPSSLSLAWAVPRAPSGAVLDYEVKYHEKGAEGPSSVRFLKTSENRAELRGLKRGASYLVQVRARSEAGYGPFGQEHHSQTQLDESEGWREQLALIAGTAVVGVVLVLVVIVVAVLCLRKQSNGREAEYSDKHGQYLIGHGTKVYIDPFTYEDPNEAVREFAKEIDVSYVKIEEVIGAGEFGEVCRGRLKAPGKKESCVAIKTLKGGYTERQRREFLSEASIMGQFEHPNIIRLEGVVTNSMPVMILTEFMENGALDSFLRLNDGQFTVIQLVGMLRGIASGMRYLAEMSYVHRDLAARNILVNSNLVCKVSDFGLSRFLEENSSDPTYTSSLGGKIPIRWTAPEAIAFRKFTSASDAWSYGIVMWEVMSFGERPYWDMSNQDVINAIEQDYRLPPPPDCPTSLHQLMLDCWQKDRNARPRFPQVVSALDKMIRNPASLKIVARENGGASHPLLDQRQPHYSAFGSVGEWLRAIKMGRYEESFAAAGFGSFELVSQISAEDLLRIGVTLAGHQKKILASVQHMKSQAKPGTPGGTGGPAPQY
The experiment in a line: Displacement of biotinylated ephrin-B1-Fc from EphB4 (unknown origin) preincubated for 1 hr followed by biotinylated-ephrin-B1-Fc addition measured after 4 hrs by ELISA. In general terms: ELISA stands for enzyme-linked immunosorbent assay.

Series [3] can be described thus: n-octanol-water distribution coefficient, log D of the compound at pH 7.4 after 4 hrs by shake-flask method. The class given is physicochemical.
The target in series [4] is T3, Ephrin type-B receptor 6 (Homo sapiens, UniProt O15197).
T3 sequence (O15197 whole entry): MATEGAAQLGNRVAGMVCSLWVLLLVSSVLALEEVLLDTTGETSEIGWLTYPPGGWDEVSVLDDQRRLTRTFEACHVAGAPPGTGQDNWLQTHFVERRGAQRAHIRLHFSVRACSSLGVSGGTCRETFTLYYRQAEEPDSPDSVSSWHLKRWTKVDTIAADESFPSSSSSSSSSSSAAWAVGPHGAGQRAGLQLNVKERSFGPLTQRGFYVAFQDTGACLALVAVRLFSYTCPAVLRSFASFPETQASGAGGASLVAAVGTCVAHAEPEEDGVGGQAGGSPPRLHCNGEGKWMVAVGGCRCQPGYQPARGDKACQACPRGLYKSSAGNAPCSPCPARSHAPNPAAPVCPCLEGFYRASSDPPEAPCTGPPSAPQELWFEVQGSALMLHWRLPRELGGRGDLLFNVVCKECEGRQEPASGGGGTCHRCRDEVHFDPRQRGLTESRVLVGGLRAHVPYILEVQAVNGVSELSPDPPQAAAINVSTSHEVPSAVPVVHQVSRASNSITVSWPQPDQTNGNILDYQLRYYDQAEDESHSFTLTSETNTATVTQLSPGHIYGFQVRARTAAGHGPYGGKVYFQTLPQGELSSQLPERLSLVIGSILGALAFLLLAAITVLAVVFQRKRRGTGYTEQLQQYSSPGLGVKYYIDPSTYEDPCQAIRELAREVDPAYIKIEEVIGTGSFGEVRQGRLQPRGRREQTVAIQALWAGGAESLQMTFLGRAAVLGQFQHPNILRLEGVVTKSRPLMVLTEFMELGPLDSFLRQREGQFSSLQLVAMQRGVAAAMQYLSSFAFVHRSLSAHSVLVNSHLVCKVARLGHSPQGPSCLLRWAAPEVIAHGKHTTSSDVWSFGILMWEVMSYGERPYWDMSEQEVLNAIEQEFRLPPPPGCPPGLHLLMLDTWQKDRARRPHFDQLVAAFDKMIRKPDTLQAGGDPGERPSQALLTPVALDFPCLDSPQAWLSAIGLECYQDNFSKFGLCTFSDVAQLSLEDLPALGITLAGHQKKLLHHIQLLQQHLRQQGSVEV
The experiment in a line: (§1) Displacement of biotinylated ephrin-B1-Fc from EphB6 (unknown origin) preincubated for 1 hr followed by biotinylated-ephrin-B1-Fc addition measured after 4 hrs by ELISA.

Series [5] concerns the target T4, Ephrin type-B receptor 6 (Homo sapiens) (UniProt O15197).
T4 sequence (whole entry): T3 sequence (O15197 whole entry)
The series is described as §1.

Active and inactive are the calls of the source. No cut-off for these calls is given here.

With `C[C@H](CCC(=O)N[C@@H](Cc1c[nH]c2ccccc12)C(=O)O)[C@H]1CC[C@H]2[C@@H]3CC=C4C[C@@H](O)CC[C@]4(C)[C@H]3CC[C@]12C`, the outcome in series [1] was inactive. In addition, the inhibition entry in series [2] and in series [5] was “Dose-dependent effect” throughout. In addition, the logD (as a rule, lipophilicity at a set pH, counting ionised and neutral species) at 4 h in series [3] was 4.01. The IC50 (usually the concentration needed to halve the response being measured) in series [4] stood at 3.3 µM.
